Where two headings read alike, the source gives them in different places.

The term IC50 denotes the concentration needed to halve the response being measured.

The target of this assay is T1, CHK2 (Homo sapiens, UniProt O96017).
T1 construct: made in house
Description: CHK2 kinase activity assay (DELFIA, phosphorylation of a CDC25C peptide). Particulars: ATP 30 μM, CHK2 1 nM, read-out: IC50, inhibition of CHK2 kinase activity in vitro. In kind it is biochemical.

T1 sequence (O96017 whole entry): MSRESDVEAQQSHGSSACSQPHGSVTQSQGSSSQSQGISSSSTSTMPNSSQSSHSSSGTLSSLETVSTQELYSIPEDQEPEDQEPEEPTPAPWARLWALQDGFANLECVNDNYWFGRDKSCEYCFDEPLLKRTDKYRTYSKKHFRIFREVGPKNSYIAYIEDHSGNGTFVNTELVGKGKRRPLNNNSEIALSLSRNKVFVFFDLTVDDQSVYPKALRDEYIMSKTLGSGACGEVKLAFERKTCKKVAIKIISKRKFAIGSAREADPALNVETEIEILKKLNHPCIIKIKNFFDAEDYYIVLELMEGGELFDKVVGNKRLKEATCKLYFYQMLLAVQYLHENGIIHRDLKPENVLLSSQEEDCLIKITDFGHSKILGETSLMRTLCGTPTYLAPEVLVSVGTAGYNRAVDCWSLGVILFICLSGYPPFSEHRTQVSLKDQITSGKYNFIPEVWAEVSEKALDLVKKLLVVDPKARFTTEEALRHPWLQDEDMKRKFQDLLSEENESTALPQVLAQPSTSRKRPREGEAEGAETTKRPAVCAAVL

For `CCN(C)C(=O)[C@H]1C[C@H](Nc2nc(-c3ccccc3O)nc3ccccc23)CN1` [Compound A-050, (2R,4S)-N-Ethyl-4-(2-(2-hydroxyphenyl)quinazolin-4-ylamino)-N-methylpyrrolidine-2-carboxamide], the concentration for half-maximal inhibition (IC50) is < 3000 nM (first set of tested compounds) and ≤ 300 nM (following further studies).
For the molecule `Oc1ccccc1-c1nc(N[C@H]2CCNC2)c2ccc(-c3ccc(CN4CCOCC4)cc3)cc2n1` [Compound A-027, (S)-2-(7-(4-(Morpholinomethyl)phenyl)-4-(pyrrolidin-3-ylamino)quinazolin-2-yl)phenol], the IC50 (first set of tested compounds) is < 3000 nM and the IC50 (following further studies) was ≤ 300 nM.
As for `CN(c1nc(-c2cc(Cl)ccc2O)nc2ccccc12)[C@H]1CCNC1` [Compound A-044, (S)-4-Chloro-2-(4-(methyl(pyrrolidin-3-yl)amino)quinazolin-2-yl)phenol], the IC50 reads like this: (first set of tested compounds) < 3000 nM; (following further studies) ≤ 300 nM.
In the case of `Oc1ccccc1-c1nc(N[C@H]2CCNC2)c2ccc(-c3cn[nH]c3)cc2n1` [Compound A-065, (S)-2-(7-(1H-Pyrazol-4-yl)-4-(pyrrolidin-3-ylamino)quinazolin-2-yl)phenol], the IC50 (following further studies) was ≤ 300 nM.
As for `COCCOc1cc2nc(-c3cc(F)ccc3O)nc(N[C@H]3CCNC3)c2cc1OCCOC` [Compound A-104, (S)-2-(6,7-bis(2-Methoxyethoxy)-4-(pyrrolidin-3-ylamino)quinazolin-2-yl)-4-fluorophenol], under “following further studies”, the IC50 is ≤ 300 nM.
With `CN(c1nc(-c2cc(F)ccc2O)nc2ccccc12)[C@H]1CCNC1` [Compound A-043, (S)-4-Fluoro-2-(4-(methyl(pyrrolidin-3-yl)amino)quinazolin-2-yl)phenol], the IC50 is < 3000 nM (first set of tested compounds) and ≤ 300 nM (following further studies).

The values are drawn from patent US8324226B2, “Therapeutic oxy-phenyl-aryl compounds and their use” (Cancer Research Technology Limited, priority 2007, dated 2012).
